The values that follow come from patent US10519134B2, “Pyrazole compounds and methods of making and using same” (Lundbeck La Jolla Research Center, Inc., priority 2015, dated 2019).

Bounds are passed on as bounds.

Experiment [1] has as its target T1, MAGL (Mus musculus, UniProt O35678).
T1 construct: Proteomes (mouse brain membrane fraction or cell lysates); from tissue; host or cells: mouse brain membrane fraction (or cell lysates)
T1 sequence (O35678 1-303): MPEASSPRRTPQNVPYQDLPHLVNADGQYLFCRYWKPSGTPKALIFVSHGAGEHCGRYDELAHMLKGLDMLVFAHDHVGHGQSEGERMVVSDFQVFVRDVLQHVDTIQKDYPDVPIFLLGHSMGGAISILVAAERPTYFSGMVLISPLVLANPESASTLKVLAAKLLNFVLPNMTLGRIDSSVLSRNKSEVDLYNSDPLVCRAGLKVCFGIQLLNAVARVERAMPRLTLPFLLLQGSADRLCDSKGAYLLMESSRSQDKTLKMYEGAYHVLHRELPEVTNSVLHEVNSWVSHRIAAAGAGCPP
The experiment in a line: In vitro competitive activity-based protein profiling (mouse), MAGL gel band. It counts as biochemical. As to conditions: for IC50: mouse; for inhibition at 1 µM: read-out: MAGL % inh. 1 μM. The method, boiled down: (§1)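 Mouse brain membrane proteome or cell lysate (1.0 mg/mL protein) preincubated 30 min at 37 °C with varying inhibitor concentrations, then labelled 30 min at 37 °C with FP-Rh or HT-01 probe (50 μM stock). After SDS-PAGE, activity taken from fluorescent intensity of the MAGL and FAAH gel bands.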

The target in experiment [2] is T1, MAGL. Kind of experiment: Mouse brain proteomes from inhibitor treated mice (oral gavage, sacrificed 4 h after administration). In kind it is in vivo. As to conditions: read-out: MAGL % inh. 5 mg/kg. As for the experimental part: Compounds are tested to assess their MAGL and other serine hydrolase activity using the following in vitro and in vivo assays.
Preparation of Mouse Brain Proteomes from Inhibitor Treated Mice.
Inhibitors were administered to wild-type C57Bl/6J by oral gavage in a vehicle of polyethylene glycol. Each animal was sacrificed 4 h following administration and brain proteomes were prepared and analyzed according to previously established methods (See Niphakis, M. J., et al. (2011) ACS Chem. Neurosci. and Long, J. Z., et al. Nat. Chem. Biol. 5:37-44)

The target in a further experiment is T2, FAAH (Mus musculus, UniProt O08914).
T2 construct: Proteomes (mouse brain membrane fraction or cell lysates); from tissue; host or cells: mouse brain membrane fraction (or cell lysates)
T2 sequence (O08914 1-579): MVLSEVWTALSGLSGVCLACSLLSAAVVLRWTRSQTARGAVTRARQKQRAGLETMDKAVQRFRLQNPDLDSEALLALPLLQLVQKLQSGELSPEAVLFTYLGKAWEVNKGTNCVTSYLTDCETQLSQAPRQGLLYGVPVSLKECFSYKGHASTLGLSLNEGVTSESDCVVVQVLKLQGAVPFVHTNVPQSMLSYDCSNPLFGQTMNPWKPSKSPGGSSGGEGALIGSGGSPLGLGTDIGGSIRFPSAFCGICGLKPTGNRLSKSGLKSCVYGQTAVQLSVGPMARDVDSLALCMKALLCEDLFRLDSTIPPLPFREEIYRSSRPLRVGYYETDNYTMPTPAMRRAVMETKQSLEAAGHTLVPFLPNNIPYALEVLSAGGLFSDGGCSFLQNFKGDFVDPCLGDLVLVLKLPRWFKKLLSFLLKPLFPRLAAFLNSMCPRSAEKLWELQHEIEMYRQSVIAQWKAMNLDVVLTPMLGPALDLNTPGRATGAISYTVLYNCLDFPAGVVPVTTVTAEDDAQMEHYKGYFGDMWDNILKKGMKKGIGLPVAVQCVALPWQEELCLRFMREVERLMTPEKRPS
The experiment in a line: In vitro competitive activity-based protein profiling (mouse), FAAH gel band. In kind it is biochemical. As to conditions: for IC50: mouse; for inhibition at 1 µM: read-out: FAAH % inh. 1 μM. The method, boiled down: as §1

As to `CC(=O)Nc1ccn(C(=O)N2CCC3(CCCN3Cc3ccc(Cl)cc3N3CCC4(CCOCC4)C3)CC2)n1` [Example 9, N-(1-(1-(4-chloro-2-(8-oxa-2-azaspiro[4.5]decan-2-yl)benzyl)-1,8-diazaspiro[4.5]decane-8-carbonyl)-1H-pyrazol-3-yl)acetamide], the results for the IC50 on MAGL [1] and at FAAH were at most 0.1 µM and 1 to 10 µM, respectively. Also, the values for the inhibition at 1 µM on MAGL [1] and on FAAH were at least 75% and 0 to 25%, respectively. The inhibition at 5 mg/kg at MAGL [2] was 0 to 25%.
Regarding `CC(=O)Nc1ccn(C(=O)N2CCC3(CCCN3Cc3ccc(C(F)(F)F)cc3N3CCOCC3)CC2)n1` [Example 10, N-(1-(1-(2-morpholino-4-(trifluoromethyl)benzyl)-1,8-diazaspiro[4.5]decane-8-carbonyl)-1H-pyrazol-3-yl)acetamide], the half-maximal inhibitory concentration (IC50) was at most 0.1 µM on MAGL [1] and 1 to 10 µM at FAAH. Also, the inhibition at 1 µM is at least 75% at MAGL [1] and 0 to 25% on FAAH. At MAGL [2], the inhibition at 5 mg/kg lay within 0 to 25%.
As for `CC(=O)Nc1ccn(C(=O)N2CCC3(CCCN3Cc3ccc(C(F)(F)F)cc3N3CCC(F)CC3)CC2)n1` [Example 12, N-(1-(1-(2-(4-fluoropiperidin-1-yl)-4-(trifluoromethyl)benzyl)-1,8-diazaspiro[4.5]decane-8-carbonyl)-1H-pyrazol-3-yl)acetamide], at MAGL [1], the IC50 is at most 0.1 µM and the inhibition at 1 µM was at least 75%. For the same compound, the inhibition at 5 mg/kg at MAGL [2] is 0 to 25%. At FAAH, the IC50 is 1 to 10 µM and the inhibition at 1 µM was in the range of 0 to 25%.
As for `CC(=O)Nc1ccn(C(=O)N2CCC3(CCCN3Cc3ccc(Cl)cc3N3CCCC3)CC2)n1` [Example 14, N-(1-(1-(4-chloro-2-(pyrrolidin-1-yl)benzyl)-1,8-diazaspiro[4.5]decane-8-carbonyl)-1H-pyrazol-3-yl)acetamide], on MAGL [1], the IC50 was at most 0.1 µM and the inhibition at 1 µM is at least 75%. Moreover, the inhibition at 5 mg/kg at MAGL [2] lay in the range of 25 to 50%. At FAAH, the IC50 is 1 to 10 µM and the inhibition at 1 µM was in the range of 0 to 25%.
Regarding `CC(=O)Nc1ccn(C(=O)N2CCC3(CCCN3Cc3ccc(Cl)cc3N3CCC(F)CC3)CC2)n1` [Example 18, N-(1-(1-(4-chloro-2-(4-fluoropiperidin-1-yl)benzyl)-1,8-diazaspiro[4.5]decane-8-carbonyl)-1H-pyrazol-3-yl)acetamide], on MAGL [1], the IC50 is at most 0.1 µM and the inhibition at 1 µM was at least 75%. Besides, on MAGL [2], the inhibition at 5 mg/kg lay in the range of 0 to 25%. Further, on FAAH, the IC50 lay within 1 to 10 µM and the inhibition at 1 µM fell in the range of 0 to 25%.
On to `CC(=O)Nc1ccn(C(=O)N2CCC3(CCCN3Cc3ccc(C(F)(F)F)cc3N3CC4CCC(C3)O4)CC2)n1` [Example 20, N-(1-(1-(2-(8-oxa-3-azabicyclo[3.2.1]octan-3-yl)-4-(trifluoromethyl)benzyl)-1,8-diazaspiro[4.5]decane-8-carbonyl)-1H-pyrazol-3-yl)acetamide], for which, on MAGL [1], the IC50 is at most 0.1 µM and the inhibition at 1 µM was at least 75%. Also, the inhibition at 5 mg/kg on MAGL [2] was 0 to 25%. Besides, at FAAH, the IC50 was 1 to 10 µM and the inhibition at 1 µM was in the range of 0 to 25%.
`CC(=O)Nc1ccn(C(=O)N2CCC3(CCCN3Cc3ccc(C(F)(F)F)cc3N3CCC4(CC3)CCN(S(C)(=O)=O)C4)CC2)n1` [Example 26, N-(1-(1-(2-(2-(methylsulfonyl)-2,8-diazaspiro[4.5]decan-8-yl)-4-(trifluoromethyl)benzyl)-1,8-diazaspiro[4.5]decane-8-carbonyl)-1H-pyrazol-3-yl)acetamide]: the IC50 on MAGL [1] was at most 0.1 µM; on FAAH, 1 to 10 µM. Further, the inhibition at 1 µM at MAGL [1] is at least 75%; at FAAH, 0 to 25%. Also, the inhibition at 5 mg/kg on MAGL [2] was 0 to 25%.
On to `CC(=O)Nc1ccn(C(=O)N2CCC3(CCCN3Cc3ccc(C(F)(F)F)cc3N3CCC4(CCOCC4)C3)CC2)n1` [Example 28, N-(1-(1-(2-(8-oxa-2-azaspiro[4.5]decan-2-yl)-4-(trifluoromethyl)benzyl)-1,8-diazaspiro[4.5]decane-8-carbonyl)-1H-pyrazol-3-yl)acetamide], for which, at MAGL [1], the IC50 is at most 0.1 µM and the inhibition at 1 µM is at least 75%. In addition, the inhibition at 5 mg/kg at MAGL [2] lay in the range of 0 to 25%. Also, at FAAH, the IC50 was 1 to 10 µM and the inhibition at 1 µM lay in the range of 0 to 25%.
For `CC(=O)Nc1ccn(C(=O)N2CCC3(CCCN3Cc3ccc(C(F)(F)F)cc3N3CCC(F)(F)CC3)CC2)n1` [Example 29, N-(1-(1-(2-(4,4-difluoropiperidin-1-yl)-4-(trifluoromethyl)benzyl)-1,8-diazaspiro[4.5]decane-8-carbonyl)-1H-pyrazol-3-yl)acetamide], the results for the concentration for half-maximal inhibition (IC50) on MAGL [1] and at FAAH were at most 0.1 µM and 1 to 10 µM, respectively. In addition, the inhibition at 1 µM on MAGL [1] is at least 75%; at FAAH, 25 to 50%. The inhibition at 5 mg/kg on MAGL [2] lay in the range of 0 to 25%.
On to `CCN1CCN(c2cc(C(F)(F)F)ccc2CN2CCCC23CCN(C(=O)n2ccc(NC(C)=O)n2)CC3)CC1` [Example 31, N-(1-(1-(2-(4-ethylpiperazin-1-yl)-4-(trifluoromethyl)benzyl)-1,8-diazaspiro[4.5]decane-8-carbonyl)-1H-pyrazol-3-yl)acetamide], for which, at MAGL [1], the 50% inhibitory concentration (IC50) was in the range of 0.1 to 1 µM and the inhibition at 1 µM is at least 75%. For the same compound, the inhibition at 5 mg/kg on MAGL [2] was 25 to 50%. Moreover, at FAAH, the IC50 was 1 to 10 µM and the inhibition at 1 µM fell in the range of 0 to 25%.
Regarding `CC(=O)Nc1ccn(C(=O)N2CCC3(CCCN3Cc3ccc(C(F)(F)F)cc3N3CC4COCC4C3)CC2)n1` (stereo not drawn) [Example 32, N-(1-(1-(2-(dihydro-1H-furo[3,4-c]pyrrol-5(3H,6H,6aH)-yl)-4-(trifluoromethyl)benzyl)-1,8-diazaspiro[4.5]decane-8-carbonyl)-1H-pyrazol-3-yl)acetamide], the IC50 at MAGL [1] is at most 0.1 µM; on FAAH it was 1 to 10 µM. The inhibition at 1 µM is at least 75% at MAGL [1] and 0 to 25% at FAAH. Further, the inhibition at 5 mg/kg on MAGL [2] is 25 to 50%.
Take `CC(=O)Nc1ccn(C(=O)N2CCC3(CCCN3Cc3ccc(Cl)cc3N3CCCCC3)CC2)n1` [Example 33, N-(1-(1-(4-chloro-2-(piperidin-1-yl)benzyl)-1,8-diazaspiro[4.5]decane-8-carbonyl)-1H-pyrazol-3-yl)acetamide]: on MAGL [1], the IC50 is at most 0.1 µM and the inhibition at 1 µM is at least 75%. In addition, the inhibition at 5 mg/kg on MAGL [2] is 25 to 50%. Besides, at FAAH, the half-maximal inhibitory concentration (IC50) lay within 1 to 10 µM and the inhibition at 1 µM lay in the range of 0 to 25%.
For `CC(=O)Nc1ccn(C(=O)N2CCC3(CCCN3Cc3ccc(Cl)cc3N3CC4CCC(C3)O4)CC2)n1` [Example 34, N-(1-(1-(2-(8-oxa-3-azabicyclo[3.2.1]octan-3-yl)-4-chlorobenzyl)-1,8-diazaspiro[4.5]decane-8-carbonyl)-1H-pyrazol-3-yl)acetamide] the same measures were at most 0.1 µM, at least 75%, 0 to 25%, 1 to 10 µM and 0 to 25%.
Turning to `CC(=O)Nc1ccn(C(=O)N2CCC3(CCCN3Cc3ccc(Cl)cc3N3CCC4(CC3)CCN(S(C)(=O)=O)C4)CC2)n1` [Example 37, N-(1-(1-(4-chloro-2-(2-(methylsulfonyl)-2,8-diazaspiro[4.5]decan-8-yl)benzyl)-1,8-diazaspiro[4.5]decane-8-carbonyl)-1H-pyrazol-3-yl)acetamide], at MAGL [1], the IC50 was at most 0.1 µM and the inhibition at 1 µM is at least 75%. In addition, the inhibition at 5 mg/kg at MAGL [2] is 0 to 25%. At FAAH, the IC50 fell in the range of 1 to 10 µM and the inhibition at 1 µM lay in the range of 0 to 25%.
For the compound `CC(=O)Nc1ccn(C(=O)N2CCC3(CCCN3Cc3ccc(Cl)cc3N3CCC4(C3)CN(S(C)(=O)=O)C4)CC2)n1` [Example 38, N-(1-(1-(4-chloro-2-(2-(methylsulfonyl)-2,6-diazaspiro[3.4]octan-6-yl)benzyl)-1,8-diazaspiro[4.5]decane-8-carbonyl)-1H-pyrazol-3-yl)acetamide], at MAGL [1], the IC50 was at most 0.1 µM and the inhibition at 1 µM was at least 75%. Further, the inhibition at 5 mg/kg at MAGL [2] was in the range of 0 to 25%. Besides, at FAAH, the IC50 lay in the range of 1 to 10 µM and the inhibition at 1 µM lay in the range of 0 to 25%.

Broadly, the IC50 is the point on the concentration scale where inhibition reaches its midpoint. Read a high IC50 as a need for much substance.
